In publication PMC6796659, “Topoisomerase IB poisons induce histone H2A phosphorylation as a response to DNA damage in Leishmania infantum” (International Journal for Parasitology: Drugs and Drug …, 2019):
Like-named read-outs stand apart in the source and are kept apart here.

What was measured:
[1] = test system: iRFP L. infantum amastigotes infecting mouse splenocytes; assay: Antileishmanial activity on iRFP L. infantum amastigotes in ex vivo murine splenic explants; type: cell-based, Leishmania infantum; conditions: for SI (Selectivity Index): CC50 (splenocytes)/EC50 (amastigotes); for EC50: Leishmania infantum, Splenocyte, 72 h, read-out: EC50 (μM) L. infantum amastigotes
Protocol: Five-week BALB/c female mice infected intraperitoneally with 1.5 × 10^9 metacyclic iRFP L. infantum promastigotes were sacrificed to eviscerate their spleens, which were processed to obtain a suspension of primary splenocytes. Briefly, freshly dissected spleens were washed with cold phosphate-buffered saline (PBS), cut in small pieces and incubated for 20 min with 5 mL of 2 mg/mL collagenase D (Sigma) prepared in buffer (10 mM HEPES, pH 7.4, 150 mM NaCl, 5 mM KCl, 1 mM MgCl2 and 1.8 mM CaCl2). Then, the cell suspension was passed through a 100 μm cell strainer, harvested by centrifugation (500×g for 7 min at 4 °C), washed twice with PBS, and resuspended in RPMI medium (Gibco) supplemented with 10 mM HEPES, 1 mM sodium pyruvate, 1xRPMI 1640 vitamin mix, 10% (v/v) FBS, 50 U/mL penicillin and 50 μg/mL streptomycin. The cell suspension was cultured in 384-well optical bottom black plates (Thermo Scientific) at 37 °C under 5% CO2 atmosphere.
(§1) The antileishmanial activity of the compounds was tested both in promastigotes and in amastigotes infecting mouse splenocytes. For this purpose, 384-well optical bottom black plates (Thermo Scientific) were seeded either with free-living iRFP L. infantum promastigotes or with splenic explants infected with iRFP L. infantum amastigotes, which were incubated at 26 °C or 37 °C, respectively. The viability of both iRFP L. infantum stages was measured by recording the fluorescence emitted by viable cells at 708 nm in an Odyssey (Li-Cor) infrared imaging system after a 72-h period of incubation with different concentrations of the compounds. Dose-response curves were obtained by plotting the infrared fluorescence emission of viable parasites vs. different concentrations of testing compounds and were fitted by nonlinear analysis using the Sigma-Plot 10.0 statistical package. The reduction of infrared emission with respect to the negative control was used to determine the 50% effective concentration to kill the parasites (EC50). Both controls and treated groups were tested with DMSO (drug vehicle) concentrations below 0.1%. All compounds and controls were assayed in triplicate.

[2] = Cytotoxicity on uninfected mouse splenocytes (Alamar Blue); type: cell-based; conditions: BALB/c, freshly isolated uninfected mouse splenocytes, non-infected mouse splenocytes, read-out: CC50 (μM) Murine Splenocytes
Protocol: Finally, the cytotoxicity of the compounds was assessed on freshly-isolated mouse splenocytes, which were obtained from uninfected BALB/c mice according to the protocol previously described. Viability of uninfected splenocytes was used to determine the cytotoxic concentration 50 (CC50) by means of the Alamar Blue staining method, according to manufacturer's recommendations (Invitrogen). Selectivity index (SI) for each compound was calculated as the ratio between the CC50 value obtained for splenic cells and the EC50 value for amastigotes.

[3] = test system: iRFP L. infantum promastigotes; assay: Antileishmanial activity on free-living iRFP L. infantum promastigotes (infrared fluorescence viability); type: cell-based; conditions: Leishmania infantum, 72 h, 26 °C
Protocol: Histone phosphorylation assays were performed in promastigotes of L. infantum BCN 150 strain, whereas the antiparasitic activity of the compounds was assessed on the transgenic strain that constitutively expresses the irfp gene encoding the infrared iRFP protein (iRFP L. infantum strain) ([Calvo-Álvarez et al., 2015]), which is derived from L. infantum BCN 150. Both strains were grown at 26 °C in M-199 medium (Gibco) supplemented with 25 mM HEPES pH 7.2, 0.1 mM adenine, 0.0005% (w/v) hemin, 2 μg/mL biopterin, 0.0001% (w/v) biotin, 10% (v/v) heat-inactivated fetal bovine serum (FBS) and an antibiotic cocktail comprising 50 U/mL penicillin and 50 μg/mL streptomycin.
as §1

[4] = test system: Leishmania topoisomerase IB (LTopIB); assay: Relaxation of supercoiled pSK DNA by recombinant LTopIB; type: biochemical; design: key: +++: inhibition at 1 μM; ++: inhibition at 10 μM; +: inhibition at 100 μM; 0: no inhibition
Protocol: (§2) Expression and purification of LTopIB and hTopIB were carried out according to a previously standardized protocol ([Villa et al., 2003]). The effect of indenoisoquinolines (compounds 1 to 20) on recombinant LTopIB and hTopIB was determined by measuring the relaxation of negatively supercoiled pBluescript-SK DNA plasmid (pSK). Briefly, in a total volume of 20 μL, 100 U of recombinant TopIB were incubated with 0.5 μg of pSK DNA in 10 mM Tris-HCl buffer (pH 7.5), 5 mM MgCl2, 5 mM dithiothreitol (DTT), 0.1 mM EDTA, […] bovine serum albumin, and 150 mM KCl. Different concentrations of indenoisoquinolines were also added. Following a 4-min incubation period at 25 °C, reactions were stopped with 1% (w/v) SDS, and incubated for one extra hour at 37 °C in the presence of 1 mg/mL proteinase K. Subsequently, samples were extracted with 1 vol phenol-chloroform mixture and were loaded on a 1% agarose gel containing 0.1 μg/mL ethidium bromide. The gel was run for 16 h at 4 V/cm, and the images were acquired using a G-Box system (Syngene, United Kingdom).

[5] = target: T1, human Top IB (hTopIB) (Homo sapiens, UniProt P11387); assay: Relaxation of supercoiled pSK DNA by recombinant hTopIB; type: biochemical
T1 construct: made in house
T1 sequence (P11387 1-765): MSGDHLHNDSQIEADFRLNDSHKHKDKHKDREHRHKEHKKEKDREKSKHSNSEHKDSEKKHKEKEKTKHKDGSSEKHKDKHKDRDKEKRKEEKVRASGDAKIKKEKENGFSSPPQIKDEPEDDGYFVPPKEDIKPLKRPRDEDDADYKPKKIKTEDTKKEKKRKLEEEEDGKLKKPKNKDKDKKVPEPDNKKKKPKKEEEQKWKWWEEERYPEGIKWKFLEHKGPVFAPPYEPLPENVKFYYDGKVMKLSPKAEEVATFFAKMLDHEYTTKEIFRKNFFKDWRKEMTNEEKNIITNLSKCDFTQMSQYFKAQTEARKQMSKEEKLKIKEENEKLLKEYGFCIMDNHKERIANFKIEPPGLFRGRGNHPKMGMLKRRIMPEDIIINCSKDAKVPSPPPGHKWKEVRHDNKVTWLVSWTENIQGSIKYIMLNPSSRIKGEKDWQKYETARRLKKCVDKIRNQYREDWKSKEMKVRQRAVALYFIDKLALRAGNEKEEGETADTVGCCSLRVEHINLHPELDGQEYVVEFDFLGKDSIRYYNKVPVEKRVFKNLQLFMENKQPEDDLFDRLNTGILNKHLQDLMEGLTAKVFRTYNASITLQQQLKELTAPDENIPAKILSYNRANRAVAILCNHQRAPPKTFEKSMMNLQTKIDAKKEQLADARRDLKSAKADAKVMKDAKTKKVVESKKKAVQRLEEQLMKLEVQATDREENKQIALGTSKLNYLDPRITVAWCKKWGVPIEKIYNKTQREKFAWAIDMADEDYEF
Protocol: as §2

[6] = test system: L. infantum promastigotes; assay: Cell cycle analysis by flow cytometry (propidium iodide); type: cell-based, Leishmania infantum; conditions: 1 μM single dose, 0, 8, 24, 48 h
Protocol: One million promastigotes untreated or treated with 1 μM of different indenoisoquinolines were harvested by centrifugation after 0, 8, 24 and 48 h exposure. Promastigotes were washed twice with PBS and fixed by 1 h incubation with 70% methanol at 4 °C. After incubation, cells were centrifuged, washed again with PBS and resuspended in 0.5 mL of citrate buffer (45 mM MgCl2, 20 mM MOPS, 30 mM sodium citrate, 0.1% Triton X-100, pH = 7). Finally, samples with RNAase (50 μg/mL) and propidium iodide ([…]) were incubated at 37 °C during 30 min and analyzed at 589 nm by flow cytometry (Cyan ADP Dako).

[7] = splenic-infecting iRFP L. infantum amastigotes, 37 °C

Row | SMILES | SI (Selectivity Index) [1] | EC50 [1, 7] [µM] | CC50 [2] [µM] | EC50 [3] [µM] | LTopIB inhibition ([4]; Table 1) | hTopIB inhibition ([5]; Table 1) | effect on cell cycle of promastigotes [6] | EC50 [1] [µM] | LTopIB inhibition ([4]; Table 2) | hTopIB inhibition ([5]; Table 2) | LTopIB inhibition ([4]; Table 3) | hTopIB inhibition ([5]; Table 3)
1 | C[C@@H]1[C@H](O)[C@@H](C)/C=C/C=C/C=C/C=C/C=C/C=C/C=C/[C@H](O[C@@H]2O[C@H](C)[C@@H](O)[C@H](N)[C@@H]2O)C[C@@H]2O[C@](O)(C[C@@H](O)C[C@@H](O)[C@H](O)CC[C@@H](O)C[C@@H](O)CC(=O)O[C@H]1C)C[C@H](O)[C@H]2C(=O)O [AMB, amphotericin B, reference compound] | >62 | 0.3 | > 20 | 0.8 ± 0.1 |  |  |  |  |  |  |  | 
2 | NCCn1c2c(c3ccccc3c1=O)C(=O)c1ccccc1-2 [Compound 1] | 24.4 | 0.04 ± 0.09 | 1.1 ± 0.06 | 0.94 ± 0.03 | +++ (inhibition at 1 μM) | ++ (inhibition at 10 μM) |  |  |  |  |  | 
3 | COc1ccc2c(c1)C(=O)c1c-2n(CCCN)c(=O)c2cc([N+](=O)[O-])ccc12 [Compound 3] |  | > 10 | 0.41 ± 0.19 | 0.2 ± 0.01 | ++ (inhibition at 10 μM) | +++ (inhibition at 1 μM) | arrested the cell cycle of promastigotes in S phase |  |  |  |  | 
4 | COC(=O)c1ccc2c(c1)C(=O)c1c-2n(CCCN)c(=O)c2cc([N+](=O)[O-])ccc12 [Compound 4] | 4.2 | 0.14 ± 0.08 | 0.59 ± 0.02 | 1.1 ± 0.07 | ++ (inhibition at 10 μM) | +++ (inhibition at 1 μM) |  |  |  |  |  | 
5 | CCOc1ccc2c(c1)C(=O)c1c-2n(CCCN)c(=O)c2cc([N+](=O)[O-])ccc12 [Compound 5] | 4.4 | 0.08 | 0.35 ± 0.03 | 0.54 ± 0.05 | ++ (inhibition at 10 μM) | +++ (inhibition at 1 μM) |  |  |  |  |  | 
6 | NCCCn1c2c(c3ccc([N+](=O)[O-])cc3c1=O)C(=O)c1cc(Br)ccc1-2 [Compound 6] | 6.2 | 0.13 ± 0.03 | 0.81 ± 0.09 | 0.52 ± 0.03 | +++ (inhibition at 1 μM) | +++ (inhibition at 1 μM) |  |  |  |  |  | 
7 | NCCCn1c2c(c3ccc([N+](=O)[O-])cc3c1=O)C(=O)c1cc3c(cc1-2)OCO3 [Compound 8] | 2.8 | 0.02 ± 0.05 | 0.05 ± 0.01 | 0.06 ± 0.01 | +++ (inhibition at 1 μM) | +++ (inhibition at 1 μM) |  |  |  |  |  | 
8 | NCCCCn1c2c(c3ccccc3c1=O)C(=O)c1ccccc1-2 [Compound 9] |  |  | 2.11 ± 0.22 | 0.43 ± 0.08 | +++ (inhibition at 1 μM) | +++ (inhibition at 1 μM) |  | 0.73 ± 0.01 |  |  |  | 
9 | NCCCCCn1c2c(c3ccccc3c1=O)C(=O)c1ccccc1-2 [Compound 10] |  | 2.29 ± 1.05 | 1.35 ± 0.19 | 2.4 ± 1.03 | +++ (inhibition at 1 μM) | +++ (inhibition at 1 μM) |  |  |  |  |  | 
10 | O=C1c2ccccc2-c2c1c1ccc([N+](=O)[O-])cc1c(=O)n2CCCn1ccnc1 [Compound 11] | 11 | 0.06 ± 0.02 | 0.71 ± 0.01 | 0.45 ± 0.5 |  |  |  |  | +++ (inhibition at 1 μM) | +++ (inhibition at 1 μM) |  | 
11 | COc1ccc2c(c1)C(=O)c1c-2n(CCCn2ccnc2)c(=O)c2cc([N+](=O)[O-])ccc12 [Compound 12] | 33 | 0.01 | 0.33 ± 0.05 | > 10 |  |  | arrested the cell cycle of promastigotes in S phase |  | ++ (inhibition at 10 μM) | +++ (inhibition at 1 μM) |  | 
12 | O=C1c2cccnc2-c2c1c1ccccc1c(=O)n2CCCn1ccnc1 [Compound 13] | 4.1 | 0.59 ± 0.6 | 2.4 ± 0.35 | 2.89 ± 0.14 |  |  |  |  | + (inhibition at 100 μM) | ++ (inhibition at 10 μM) |  | 
13 | COc1cc2c3c(n(CCCn4ccnc4)c(=O)c2cc1OC)-c1cc2c(cc1C3=O)OCO2 [Compound 14] | 3.0 | 0.01 | 0.03 | 1.85 ± 0.18 |  |  |  |  | 0 | +++ (inhibition at 1 μM) |  | 
14 | O=C1c2ccccc2-c2c1c1ccc([N+](=O)[O-])cc1c(=O)n2CCCN1CCOCC1 [Compound 15] | 30 | 0.6 ± 0.42 | 18 ± 5.3 | > 10 |  |  |  |  |  |  | 0 | +++ (inhibition at 1 μM)
15 | COc1ccc2c(c1)C(=O)c1c-2n(CCCN2CCOCC2)c(=O)c2cc([N+](=O)[O-])ccc12 [Compound 16] |  | 1.86 ± 0.29 | 0.59 ± 0.08 | > 10 |  |  |  |  |  |  | 0 | +++ (inhibition at 1 μM)
